Reference: the supplement of paper PMC10307832

Experiments:
Assay in all cases: relative viability (nuclei count vs DMSO), 5 days (fraction); higher = more cells survive
[1] = compound: COc1cc2c(Oc3ccc4[nH]c(C)cc4c3F)ncnc2cc1OCCCN1CCCC1 [Cediranib] + Cc1nc(NC(=O)N2CCC[C@H]2C(N)=O)sc1-c1ccnc(C(C)(C)C(F)(F)F)c1 [Alpelisib] (partner 2 µM)
Outline: (§1)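 For relative viability, nuclei counts in treated wells were divided by those in vehicle wells. Lung cancer cell lines had been pin-tool dosed in 1536-well plates the day after seeding and cultured for 5 days, then fixed and stained in one step (final 0.05% Triton X-100, 1% formaldehyde, 1 ug/ml Hoechst) and imaged at 4×. Doses were one drug alone or a fixed anchor-drug dose plus five library-drug doses (not always all listed) in √10 steps, and values are duplicate-plate medians.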

[2] = compound: O=C(C[C@H]1NCCC[C@@H]1O)Cn1cnc2cc(Br)c(Cl)cc2c1=O (racemic) [Halofuginone] + CCNC(=O)c1noc(-c2cc(C(C)C)c(O)cc2O)c1-c1ccc(CN2CCOCC2)cc1 [Luminespib] (partner 0.01 µM)
Outline: as §1

[3] = compound: O=C(C[C@H]1NCCC[C@@H]1O)Cn1cnc2cc(Br)c(Cl)cc2c1=O (racemic) [Halofuginone] + C[C@]1(O)C[C@@H](c2nc(-c3ccc4ccc(-c5ccccc5)nc4c3)c3c(N)nccn32)C1 [Linsitinib] (partner 1 µM)
Outline: as §1

[4] = compound: O=C(C[C@H]1NCCC[C@@H]1O)Cn1cnc2cc(Br)c(Cl)cc2c1=O (racemic) [Halofuginone] + NC(=O)Nc1cc(-c2cccc(F)c2)sc1C(=O)N[C@H]1CCCNC1 [AZD7762] (partner 0.2 µM)
Outline: as §1

Cell Line | relative viability ([1]; first compound 0.04 µM) | relative viability ([1]; first compound 0.1265 µM) | relative viability ([1]; first compound 0.4 µM) | relative viability ([1]; first compound 1.265 µM) | relative viability ([1]; first compound 4 µM) | relative viability ([2]; first compound 0.001 µM) | relative viability ([2]; first compound 0.003162 µM) | relative viability ([2]; first compound 0.01 µM) | relative viability ([2]; first compound 0.03162 µM) | relative viability ([2]; first compound 0.1 µM) | relative viability ([3]; first compound 0.001 µM) | relative viability ([3]; first compound 0.003162 µM) | relative viability ([3]; first compound 0.01 µM) | relative viability ([3]; first compound 0.03162 µM) | relative viability ([3]; first compound 0.1 µM) | relative viability ([4]; first compound 0.001 µM) | relative viability ([4]; first compound 0.003162 µM) | relative viability ([4]; first compound 0.01 µM) | relative viability ([4]; first compound 0.03162 µM) | relative viability ([4]; first compound 0.1 µM)
NCI-H1666 | 1.04 | 0.995 | 0.875 | 0.924 | 0.962 | 1.01 | 0.968 | 0.996 | 0.958 | 0.783 | 1.03 | 0.957 | 0.779 | 0.842 | 0.703 | 0.811 | 0.711 | 0.84 | 0.841 | 0.956
NCI-H1793 | 0.683 | 0.694 | 0.64 | – | 0.788 | 0.181 | 0.191 | 0.172 | 0.211 | 0.161 | 0.985 | 0.962 | 0.822 | 0.883 | 0.398 | 0.461 | 0.593 | 0.508 | 0.394 | 0.549
NCI-H1437 | 1.02 | 1.03 | 0.971 | 0.954 | 1.12 | 1.12 | 1.1 | 1.1 | 1.04 | 0.879 | 1.05 | 1.13 | 0.988 | 0.828 | 0.208 | 1.11 | 1.08 | 1.07 | 1.17 | 1.11
NCI-H358 | 1.04 | 1.05 | 0.745 | 0.996 | 0.926 | 0.306 | 0.455 | 0.229 | 0.205 | 0.154 | 0.779 | 0.707 | 0.629 | 0.273 | 0.19 | 0.496 | 0.492 | 0.447 | 0.246 | 0.149
NCI-H1792 | 0.762 | 0.939 | 0.648 | 0.718 | 0.589 | 0.498 | 0.402 | 0.414 | 0.452 | 0.296 | 0.602 | 0.501 | 0.642 | 0.569 | 0.523 | 0.684 | 0.722 | 0.585 | 0.541 | 0.234
NCI-H1355 | 0.993 | 0.879 | 0.704 | 0.838 | 0.956 | 0.716 | 0.635 | 0.672 | 0.672 | 0.579 | 0.825 | 0.819 | 0.832 | 0.822 | 0.61 | 0.801 | 0.81 | 0.688 | 0.73 | 0.616
NCI-H2347 | 1.15 | 0.997 | 0.919 | 0.975 | 1.12 | 0.513 | 0.321 | 0.483 | 0.511 | 0.598 | 1.06 | 1.05 | 0.902 | 1.04 | 0.777 | 0.673 | 0.745 | 0.681 | 0.822 | 0.538
A-427 | 1.04 | – | 1.08 | 1.01 | 1.08 | 1.08 | 0.934 | 0.913 | 0.818 | 0.733 | 1.18 | 1.13 | 1.02 | 1.09 | 1.08 | 0.729 | 0.806 | 0.805 | 0.77 | 0.497
PC-14 | 0.96 | 1 | 0.906 | 0.965 | 0.986 | 0.152 | 0.161 | 0.183 | 0.184 | 0.104 | 1.09 | 0.97 | 0.884 | 0.774 | 0.332 | 0.435 | 0.409 | 0.381 | 0.366 | 0.198
NCI-H2087 | 1.05 | 1.25 | 1.18 | 1.11 | 1.14 | 0.179 | 0.152 | 0.178 | 0.174 | 0.134 | 1.01 | 1.04 | 0.945 | 0.98 | 0.833 | 1.42 | 1.48 | 1.33 | 1.48 | 1.01
HOP-62 | 1.16 | – | 0.74 | 0.96 | 1.18 | 0.817 | 0.96 | 0.902 | 0.921 | 0.818 | 1.1 | 1.07 | 1.09 | 0.95 | 0.302 | 0.573 | 0.676 | 0.47 | 0.599 | 0.327
EKVX | 0.961 | 1.2 | 0.849 | 0.879 | 0.836 | 0.868 | 0.818 | 0.891 | 0.871 | 0.937 | 1.02 | 0.966 | 0.916 | 1.06 | 0.762 | 0.721 | 0.615 | 0.692 | 0.784 | 0.496
EMC-BAC-2 | 0.788 | 0.796 | 0.707 | 0.728 | 0.801 | 1.13 | 1.14 | 1.17 | 0.896 | 0.649 | 0.813 | 0.872 | 0.798 | 0.785 | 0.641 | 1.17 | 1.2 | 1.06 | 1.12 | 0.842
HARA | 0.844 | 1.14 | 0.837 | 0.857 | 1.01 | 0.311 | 0.786 | 0.635 | 0.679 | 0.429 | 1.02 | 0.981 | 0.79 | 1.02 | 0.828 | 0.279 | 0.506 | 0.391 | 0.305 | 0.304
LU99A | 0.567 | – | 0.489 | 0.49 | 0.589 | 0.244 | 0.281 | 0.238 | 0.239 | 0.174 | 0.634 | 0.477 | 0.522 | 0.515 | 0.45 | 0.323 | 0.347 | 0.384 | 0.327 | 0.346
NCI-H1944 | 0.876 | 1.16 | 0.757 | 0.785 | 0.815 | 0.647 | 0.7 | 0.763 | 0.735 | 0.313 | 1.2 | 1.1 | 1.22 | 1.13 | 0.936 | 0.524 | 0.446 | 0.544 | 0.669 | 0.381
LK-2 | 1.36 | 1.01 | 1.13 | 1.11 | 0.475 | 0.152 | 0.147 | 0.181 | 0.205 | 0.179 | 0.722 | 0.656 | 0.433 | 0.609 | 0.452 | 0.583 | 0.432 | 0.487 | 0.491 | 0.281
NCI-H441 | 0.629 | 0.69 | – | 0.638 | 0.781 | 0.352 | 0.292 | 0.487 | 0.306 | 0.213 | 0.6 | 0.651 | 0.525 | 0.561 | 0.353 | 1.13 | 1.35 | 1.18 | 1.3 | 0.599
NCI-H23 | 0.625 | – | 0.667 | 0.7 | 0.734 | 0.213 | 0.184 | 0.203 | 0.203 | 0.231 | 0.656 | 0.573 | 0.556 | 0.692 | 0.211 | 0.32 | 0.184 | 0.223 | 0.233 | 0.246
NCI-H647 | 1.35 | 1.3 | 1.02 | 0.876 | 1.21 | 0.141 | 0.153 | 0.147 | 0.137 | 0.129 | 1.35 | 1.06 | 1.03 | 0.665 | 0.173 | 0.489 | 0.451 | 0.52 | 0.388 | 0.416
201T | 1.03 | 1.24 | 1.04 | 0.992 | 1.03 | 1.06 | 1.04 | 1.03 | 1.08 | 0.866 | 1.07 | 1.08 | 1.03 | 0.967 | 0.724 | 0.634 | 0.634 | 0.589 | 0.711 | 0.8
NCI-H1734 | 0.626 | 0.741 | 0.711 | 0.619 | 0.848 | 0.198 | 0.199 | 0.224 | 0.233 | 0.187 | 0.904 | 0.947 | 0.888 | 0.938 | 0.416 | 0.558 | 0.619 | 0.52 | 0.576 | 0.269
NCI-H596 | 0.489 | 0.481 | 0.478 | 0.509 | 0.577 | 1.02 | 1.23 | 1.06 | 0.941 | 0.324 | 1.13 | 1.04 | 1.07 | 1.12 | 0.732 | 1.19 | 1.18 | 1.1 | 0.95 | 0.722
